Experimental data taken from patent publication US7678538B2, “Disinfection of biological fluids using asymmetric cyanine dyes” (American National Red Cross, priority 2005, dated 2010).
Values joined by “and” are separate entries in the source; they are usually repeats but may differ in a detail not shown here. Equal entries are not always repeated.

Legend:
model viruses = conditions: dimethylmethylene blue phototreatment with quinacrine as competitive membrane binding inhibitor; cited from earlier work
VSV = format: cell-based; conditions: 80 μM TO, 7.4 J/cm^2 cool white light, 20% hematocrit RBCs, 60 min incubation
PRV = format: cell-based, Pseudorabies virus; conditions: 80 μM TO, 7.4 J/cm^2 cool white light, 20% hematocrit RBCs, 60 min incubation
BVDV = format: cell-based, Bovine viral diarrhea virus
extracellular HIV = format: cell-based; conditions: 80 μM TO, 7.4 J/cm^2 cool white light, 20% hematocrit RBCs, 60 min incubation
intracellular HIV = test: HIV photoinactivation in RBC suspension, CCRF-CEM coculture and p24 ELISA; format: cell-based, HIV-1; conditions: 80 μM TO, 7.4 J/cm^2 cool white light, 20% hematocrit RBCs, 60 min incubation
bacteriophage φ6 = test: Bacteriophage photoinactivation in RBC suspension, plaque assay; format: cell-based; conditions: 80 μM TO, 7.4 J/cm^2 cool white light, 20% hematocrit RBCs, 60 min incubation
Experimental: Leukodepleted 20% hematocrit RBCs suspended in Erythrosol (RAS-2) were oxygenated, inoculated with test organisms, incubated with TO, and illuminated with 7.4 J/cm^2 of cool white light. Control and treated samples were analyzed by appropriate assay. Identically prepared, but uncontaminated samples were phototreated, concentrated to 45% hematocrit, and assayed for potassium leakage, hemolysis and ATP during storage.
(§1) Viruses or bacteria were added into approximately 50-60% hematocrit RBCs with subsequent addition of additive solution and TO to obtain 20% final hematocrit containing 80 μM of the dye. The final volume of the pathogen spike was equal to 10% for mammalian viruses and equal to 1% for bacteriophage and bacteria. […] A fluence rate of 8.2 mW/cm^2 was measured by an optical power meter (model 371, United Detector Technology, Hawthorn, Calif.) equipped with a silicone diode detector and radiometric filter (400-1000 nm, model 115-9, United Detector Technology). […]
All virus assays were individually tested for cytotoxicity and interference. […] Log10 reduction values were calculated by subtracting the log10 titer/mL of RBCs with viable virus after illumination, or the log10 limit of detection/mL of RBCs without viable virus after illumination, from the measured log10 titer/mL of unilluminated RBCs.

[1] = test system: Staphylococcus epidermidis; test: Bacteria photoinactivation in RBC suspension, colony count; format: cell-based; conditions: 80 μM TO, 7.4 J/cm^2 cool white light, 20% hematocrit RBCs, 60 min incubation
Staphylococcus aureus = test: as above; format: cell-based; conditions: 80 μM TO, 7.4 J/cm^2 cool white light, 20% hematocrit RBCs, 60 min incubation
Deinococcus radiodurans = test: as above; format: cell-based; conditions: 80 μM TO, 7.4 J/cm^2 cool white light, 20% hematocrit RBCs, 60 min incubation
Yersinia enterocolitica = test: as above; format: cell-based; conditions: 80 μM TO, 7.4 J/cm^2 cool white light, 20% hematocrit RBCs, 60 min incubation
Pseudomonas fluorescens = test: as above; format: cell-based; conditions: 80 μM TO, 7.4 J/cm^2 cool white light, 20% hematocrit RBCs, 60 min incubation
Serratia liquefaciens = test: as above; format: cell-based; conditions: 80 μM TO, 7.4 J/cm^2 cool white light, 20% hematocrit RBCs, 60 min incubation
Serratia marcescens = test: as above; format: cell-based; conditions: 80 μM TO, 7.4 J/cm^2 cool white light, 20% hematocrit RBCs, 60 min incubation
Escherichia coli = test: as above; format: cell-based; conditions: 80 μM TO, 7.4 J/cm^2 cool white light, 20% hematocrit RBCs, 60 min incubation
enveloped viruses = format: cell-based
bacteria = test: Bacteria photoinactivation, tested species overall; format: cell-based; conditions: 80 μM TO, 7.4 J/cm^2 cool white light
Experimental: as §1, with “bacteria. RBC suspensions containing dye were incubated for 60 minutes and 2 ml aliquots were transferred to polystyrene culture dishes (50 mm bottom diameter) to produce a 1 mm blood film. For some bacterial experiments, RBC suspensions were incubated for different times prior to illumination.” for “bacteria.”
We prepared bacterial stocks by inoculating a single colony into 5 mL of Luria broth (LB) and incubating cultures overnight under aerobic conditions at 30 or 37° C., depending on the strain. […] Colonies were counted after 24-72 hours of incubation at 30 or 37° C., with time and incubation temperature depending on the strain. Colonies were counted from all plates that contained between 1 and 750 colonies per plate. […]

Cc1cc(=[N+](C)C)cc2sc3cc(N(C)C)cc(C)c3nc1-2.[Cl-] [dimethylmethylene blue]
reduction of model viruses (model viruses): > 6 log10

CN1/C(=C/c2cc[n+](C)c3ccccc23)Sc2ccccc21.Cc1ccc(S(=O)(=O)[O-])cc1 [TO, 1-methyl-4-[(3-methyl-2(3H)-benzothiazolylidene)methyl]quinoliniump-tosylate]
Inactivation Log10, VSV (VSV): 7.1 log10 and 7.1±0.2 log10 and 7.1 ± 0.2 (n = 4) log10
Inactivation Log10, PRV (PRV): 5.4 log10 and 5.4±0.7 log10 and 5.4 ± 0.7 (n = 4) log10
Inactivation Log10, BVDV (BVDV): 6.2 log10 and 6.2±0.1 log10 and 6.2 ± 0.1 (n = 3) log10
Inactivation Log10, extracellular HIV (extracellular HIV): >6.5 (n = 3) log10
Inactivation Log10, intracellular HIV (intracellular HIV): >6.3 (n = 3) log10
Inactivation Log10, bacteriophage φ6 (bacteriophage φ6): 6.7 log10 and 6.7±0.7 log10 and 6.7 ± 0.7 (n = 3) log10
Inactivation Log10, Staphylococcus epidermidis [1]: >7.0 (n = 4) log10
Inactivation Log10, Staphylococcus aureus (Staphylococcus aureus): 2.4 log10 and 2.4 ± 0.7 (n = 4) log10
Inactivation Log10, Deinococcus radiodurans (Deinococcus radiodurans): >6.8 (n = 3) log10
Inactivation Log10, Yersinia enterocolitica (Yersinia enterocolitica): 6.4 log10 and 6.4 ± 2.0 (n = 4) log10
Inactivation Log10, Pseudomonas fluorescens (Pseudomonas fluorescens): 2.3 log10 and 2.3 ± 1.2 (n = 4) log10
Inactivation Log10, Serratia liquefaciens (Serratia liquefaciens): 2.8 log10 and 2.8 ± 0.6 (n = 4) log10
Inactivation Log10, Serratia marcescens (Serratia marcescens): 3.5 log10 and 3.5 ± 2.5 (n = 3) log10
Inactivation Log10, Escherichia coli (Escherichia coli): 5.3 log10 and 5.3 ± 2.0 (n = 4) log10
inactivation of tested enveloped viruses (enveloped viruses): 5.1-7.4 log10
inactivation of bacteria, another four (more resistant) species (bacteria): 2-3 log10
inactivation of bacteria, four (sensitive) species (bacteria): 5-7 log10
day 42 hemolysis in ADSOL additive solution (RBCs): 1.6±0.6%
hemolysis levels during storage, TO versus TP phototreated RBCs (RBCs): similar
hemolysis on day 42, TO maintained in the dark (RBCs): 0.31%
